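Tested at 5 concentrations; 48 h exposure; 96-well plates; endpoints linearly interpolated, else capped at highest concentration. TGI marks complete inhibition of growth.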
Columns and labels:
Experiment in all cases: NCI tumour cell line growth inhibition, 48 h
[1] = test system: 786-0 renal
[2] = test system: A498 renal
[3] = test system: A549 NSCLC
[4] = test system: ACHN renal
[5] = test system: BT-549 breast
[6] = test system: CAKI-1 renal
[7] = test system: CCRF-CEM leukemia
[8] = test system: COLO 205 colon
[9] = test system: DU-145 prostate
[10] = test system: EKVX NSCLC
[11] = test system: HCC-2998 colon
[12] = test system: HCT-116 colon
[13] = test system: HCT-15 colon
[14] = test system: HL-60(TB) leukemia
[15] = test system: HOP-62 NSCLC
[16] = test system: HOP-92 NSCLC
[17] = test system: HS 578T breast
[18] = test system: HT29 colon
[19] = test system: IGROV1 ovarian
[20] = test system: K-562 leukemia
[21] = test system: KM12 colon
[22] = test system: LOX IMVI melanoma
[23] = test system: M14 melanoma
[24] = test system: MALME-3M melanoma
[25] = test system: MCF7 breast
[26] = test system: MDA-MB-231 breast
[27] = test system: MDA-MB-435
[28] = test system: MDA-N
[29] = test system: MOLT-4 leukemia
[30] = test system: NCI-H226 lung
[31] = test system: NCI-H23 lung
[32] = test system: NCI-H460 lung
[33] = test system: NCI-H522 lung
[34] = test system: NCI/ADR-RES ovarian
[35] = test system: OVCAR-3 ovarian
[36] = test system: OVCAR-4 ovarian
[37] = test system: OVCAR-5 ovarian
[38] = test system: OVCAR-8 ovarian
[39] = test system: PC-3 prostate
[40] = test system: RPMI-8226 leukemia
[41] = test system: RXF 393 renal
[42] = test system: SF-268 CNS
[43] = test system: SF-295 CNS
[44] = test system: SF-539 CNS
[45] = test system: SK-MEL-2 melanoma
[46] = test system: SK-MEL-28 melanoma
[47] = test system: SK-MEL-5 melanoma
[48] = test system: SK-OV-3 ovarian
[49] = test system: SN12C renal
[50] = test system: SNB-19 CNS
[51] = test system: SNB-75 CNS
[52] = test system: SR leukemia
[53] = test system: SW-620 colon
[54] = test system: T-47D breast
[55] = test system: TK-10 renal
[56] = test system: U251 CNS
[57] = test system: UACC-257 melanoma
[58] = test system: UACC-62 melanoma
[59] = test system: UO-31 renal

Measured: TGI

CC1(C)O[C@@H]2C[C@H]3[C@@H]4C[C@H](F)C5=CC(=O)C=C[C@]5(C)[C@@]4(F)[C@@H](O)C[C@]3(C)[C@]2(C(=O)CO)O1
> 100 µM: all assays above

Source: PubChem BioAssay (NCI)
